In ChEMBL document CHEMBL5120855, “Potent 2,3-dihydrophthalazine-1,4-dione derivatives as dual inhibitors for mono-ADP-ribosyltransferases PARP10 and PARP15” (Eur J Med Chem, 2022) one finds IC50 data, which are given here for 1 molecule.

Assay [1] concerns the target T1, Protein mono-ADP-ribosyltransferase PARP10 (Homo sapiens, UniProt Q53GL7).
T1 sequence (Q53GL7 whole entry): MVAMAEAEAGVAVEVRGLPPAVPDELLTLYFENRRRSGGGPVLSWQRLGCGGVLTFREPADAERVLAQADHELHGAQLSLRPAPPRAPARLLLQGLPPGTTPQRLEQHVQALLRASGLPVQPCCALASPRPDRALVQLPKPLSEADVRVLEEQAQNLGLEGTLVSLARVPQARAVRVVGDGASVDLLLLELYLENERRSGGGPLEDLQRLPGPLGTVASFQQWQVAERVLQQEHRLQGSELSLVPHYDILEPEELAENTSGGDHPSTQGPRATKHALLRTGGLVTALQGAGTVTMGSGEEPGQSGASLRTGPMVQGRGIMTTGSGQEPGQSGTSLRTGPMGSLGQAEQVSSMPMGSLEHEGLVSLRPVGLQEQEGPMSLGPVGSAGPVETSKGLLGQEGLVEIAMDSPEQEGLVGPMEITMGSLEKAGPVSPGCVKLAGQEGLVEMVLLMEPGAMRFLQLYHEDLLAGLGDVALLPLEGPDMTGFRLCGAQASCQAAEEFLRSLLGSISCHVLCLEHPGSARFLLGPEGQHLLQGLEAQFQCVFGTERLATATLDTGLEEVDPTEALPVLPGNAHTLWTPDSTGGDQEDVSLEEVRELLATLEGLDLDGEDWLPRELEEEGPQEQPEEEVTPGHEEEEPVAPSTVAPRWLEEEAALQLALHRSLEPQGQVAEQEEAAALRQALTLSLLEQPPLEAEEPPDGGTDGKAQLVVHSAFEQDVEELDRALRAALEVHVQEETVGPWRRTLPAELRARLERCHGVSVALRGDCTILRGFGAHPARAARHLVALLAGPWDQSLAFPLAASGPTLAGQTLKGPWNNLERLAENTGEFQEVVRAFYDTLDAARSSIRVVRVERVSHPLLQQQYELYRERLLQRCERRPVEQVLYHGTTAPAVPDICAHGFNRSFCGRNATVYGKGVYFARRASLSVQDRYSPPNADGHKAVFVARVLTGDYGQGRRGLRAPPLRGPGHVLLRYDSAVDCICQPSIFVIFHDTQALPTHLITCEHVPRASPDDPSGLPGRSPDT
The assay is described as follows: Inhibition of human PARP-10 using NAD+ as substrate incubated for 10 mins by fluorescence based analysis.

For assay [2], the target named is Protein mono-ADP-ribosyltransferase PARP14 (Homo sapiens, UniProt Q460N5). The assay is described as follows: Inhibition of human PARP14 using NAD+ as substrate incubated for 10 mins by fluorescence based analysis.
For assay [3], the target named is T2, Protein mono-ADP-ribosyltransferase PARP3 (Homo sapiens, UniProt Q9Y6F1).
T2 sequence (Q9Y6F1 whole entry): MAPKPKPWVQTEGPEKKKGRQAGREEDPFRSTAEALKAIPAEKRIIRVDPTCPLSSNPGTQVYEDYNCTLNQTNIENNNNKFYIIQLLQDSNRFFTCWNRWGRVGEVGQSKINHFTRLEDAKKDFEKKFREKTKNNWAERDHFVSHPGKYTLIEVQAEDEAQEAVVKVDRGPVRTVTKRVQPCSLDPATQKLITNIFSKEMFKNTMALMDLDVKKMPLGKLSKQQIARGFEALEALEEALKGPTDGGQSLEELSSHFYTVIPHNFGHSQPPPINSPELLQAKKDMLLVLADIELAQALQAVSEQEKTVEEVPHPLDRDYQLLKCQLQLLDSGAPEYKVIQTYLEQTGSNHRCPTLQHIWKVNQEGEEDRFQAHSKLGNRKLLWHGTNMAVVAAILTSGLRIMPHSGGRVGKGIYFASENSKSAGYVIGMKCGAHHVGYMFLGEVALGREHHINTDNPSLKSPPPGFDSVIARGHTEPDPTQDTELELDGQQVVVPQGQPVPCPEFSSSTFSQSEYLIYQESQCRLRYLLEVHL
The assay is described as follows: Inhibition of human PARP3.

Assay [4] addresses T3, Poly [ADP-ribose] polymerase tankyrase-1 (Homo sapiens, UniProt O95271).
T3 sequence (O95271 whole entry): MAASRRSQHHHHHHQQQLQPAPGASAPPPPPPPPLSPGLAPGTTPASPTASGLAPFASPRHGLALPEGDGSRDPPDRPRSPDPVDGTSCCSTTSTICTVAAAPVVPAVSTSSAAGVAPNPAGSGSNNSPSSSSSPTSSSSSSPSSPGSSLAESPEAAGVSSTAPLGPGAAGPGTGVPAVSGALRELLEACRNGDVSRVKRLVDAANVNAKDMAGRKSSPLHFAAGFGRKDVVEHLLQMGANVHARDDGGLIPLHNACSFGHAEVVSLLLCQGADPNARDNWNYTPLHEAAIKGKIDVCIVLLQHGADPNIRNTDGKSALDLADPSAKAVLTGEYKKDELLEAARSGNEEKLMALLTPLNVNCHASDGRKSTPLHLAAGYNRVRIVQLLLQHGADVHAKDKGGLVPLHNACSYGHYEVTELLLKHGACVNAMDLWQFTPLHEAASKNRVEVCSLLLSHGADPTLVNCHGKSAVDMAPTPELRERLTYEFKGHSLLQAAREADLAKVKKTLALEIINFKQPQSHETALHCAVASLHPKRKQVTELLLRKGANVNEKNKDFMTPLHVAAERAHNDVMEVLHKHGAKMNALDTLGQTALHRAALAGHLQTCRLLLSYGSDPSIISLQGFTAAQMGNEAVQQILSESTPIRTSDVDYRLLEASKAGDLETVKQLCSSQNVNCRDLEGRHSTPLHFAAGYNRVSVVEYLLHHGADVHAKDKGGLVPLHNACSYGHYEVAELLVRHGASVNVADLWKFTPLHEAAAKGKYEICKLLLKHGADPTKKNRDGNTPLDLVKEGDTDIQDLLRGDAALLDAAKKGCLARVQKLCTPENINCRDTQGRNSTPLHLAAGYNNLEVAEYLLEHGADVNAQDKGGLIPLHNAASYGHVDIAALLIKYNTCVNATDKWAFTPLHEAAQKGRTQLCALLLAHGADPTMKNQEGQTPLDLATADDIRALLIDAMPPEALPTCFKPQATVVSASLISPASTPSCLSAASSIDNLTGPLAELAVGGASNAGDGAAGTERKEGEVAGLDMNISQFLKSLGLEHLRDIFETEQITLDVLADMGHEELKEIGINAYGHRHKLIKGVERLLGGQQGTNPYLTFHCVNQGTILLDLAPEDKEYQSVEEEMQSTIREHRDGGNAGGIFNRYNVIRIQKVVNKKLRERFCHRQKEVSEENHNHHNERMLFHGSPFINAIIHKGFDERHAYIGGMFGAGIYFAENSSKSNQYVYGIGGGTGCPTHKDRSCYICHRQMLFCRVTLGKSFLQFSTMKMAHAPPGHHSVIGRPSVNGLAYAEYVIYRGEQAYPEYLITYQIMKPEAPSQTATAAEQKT
The assay is described as follows: Inhibition of human TNKS1.

Sequence of Protein mono-ADP-ribosyltransferase PARP14 (Q460N5 whole entry): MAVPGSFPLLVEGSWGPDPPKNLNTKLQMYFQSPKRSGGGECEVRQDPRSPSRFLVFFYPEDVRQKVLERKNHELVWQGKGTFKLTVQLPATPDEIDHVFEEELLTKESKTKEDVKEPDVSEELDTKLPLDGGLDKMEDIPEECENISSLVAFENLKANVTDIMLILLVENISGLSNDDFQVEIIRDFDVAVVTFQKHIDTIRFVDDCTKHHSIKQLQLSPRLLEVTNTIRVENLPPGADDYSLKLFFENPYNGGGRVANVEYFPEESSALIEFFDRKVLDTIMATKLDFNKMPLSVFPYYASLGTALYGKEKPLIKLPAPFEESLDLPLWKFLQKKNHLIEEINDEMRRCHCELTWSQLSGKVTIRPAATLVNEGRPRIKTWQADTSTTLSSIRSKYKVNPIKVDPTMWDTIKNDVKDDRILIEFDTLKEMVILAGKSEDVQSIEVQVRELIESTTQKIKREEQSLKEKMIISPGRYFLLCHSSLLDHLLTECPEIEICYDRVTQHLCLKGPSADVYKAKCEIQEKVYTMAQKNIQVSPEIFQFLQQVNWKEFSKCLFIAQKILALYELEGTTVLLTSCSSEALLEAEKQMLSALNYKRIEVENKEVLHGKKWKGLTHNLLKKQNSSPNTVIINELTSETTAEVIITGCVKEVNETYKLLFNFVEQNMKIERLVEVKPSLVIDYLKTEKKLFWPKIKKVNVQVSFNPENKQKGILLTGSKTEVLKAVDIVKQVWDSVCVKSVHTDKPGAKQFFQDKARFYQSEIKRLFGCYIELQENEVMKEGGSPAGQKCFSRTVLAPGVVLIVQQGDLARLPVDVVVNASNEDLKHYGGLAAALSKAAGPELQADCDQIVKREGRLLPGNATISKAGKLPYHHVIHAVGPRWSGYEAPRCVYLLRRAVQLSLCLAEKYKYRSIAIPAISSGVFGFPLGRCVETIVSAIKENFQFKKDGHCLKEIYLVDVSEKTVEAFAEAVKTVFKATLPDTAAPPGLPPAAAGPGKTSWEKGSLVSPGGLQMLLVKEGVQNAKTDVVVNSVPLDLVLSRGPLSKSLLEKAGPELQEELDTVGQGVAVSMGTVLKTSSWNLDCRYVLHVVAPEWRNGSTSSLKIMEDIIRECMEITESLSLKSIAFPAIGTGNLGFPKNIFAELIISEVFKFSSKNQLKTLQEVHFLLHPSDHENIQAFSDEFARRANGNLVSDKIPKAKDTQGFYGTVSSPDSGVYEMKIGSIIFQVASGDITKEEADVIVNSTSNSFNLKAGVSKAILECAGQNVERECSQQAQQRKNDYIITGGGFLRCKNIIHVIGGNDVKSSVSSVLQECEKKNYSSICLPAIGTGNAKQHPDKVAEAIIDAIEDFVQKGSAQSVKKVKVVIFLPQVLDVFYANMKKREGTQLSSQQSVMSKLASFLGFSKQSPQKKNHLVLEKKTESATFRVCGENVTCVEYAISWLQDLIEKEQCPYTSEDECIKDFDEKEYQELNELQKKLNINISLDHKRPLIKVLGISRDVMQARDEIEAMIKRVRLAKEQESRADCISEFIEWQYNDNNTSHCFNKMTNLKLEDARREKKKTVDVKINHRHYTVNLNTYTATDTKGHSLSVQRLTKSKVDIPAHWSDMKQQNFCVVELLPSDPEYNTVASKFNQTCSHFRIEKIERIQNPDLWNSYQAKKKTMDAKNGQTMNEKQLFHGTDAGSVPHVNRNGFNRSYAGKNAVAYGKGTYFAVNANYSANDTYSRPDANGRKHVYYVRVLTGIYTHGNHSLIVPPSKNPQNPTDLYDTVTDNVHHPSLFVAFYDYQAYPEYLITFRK

As to `NC(=O)c1ccc(OCC2CCC2)cc1`, the IC50 in assay [1] is 0.29 µM; in assay [2] it was > 10 µM; in assay [3], > 100 µM; in assay [4] it was > 100 µM.

The term IC50 denotes the concentration at which inhibition is half-maximal. A lower IC50 goes with inhibition by little substance.
